{
  "source": "patent US11628146B2",
  "about": "“Estrogen receptor ligand treatment for neurodegenerative diseases” (The Regents of the University of California, priority 2014, dated 2023)",
  "key": {"EAE in NOD mice": {"tested_on": "EAE in NOD mice", "experiment": "Rotarod testing in EAE, NOD mice", "assay_type": "in vivo, mouse", "design": "key to Rotarod Score: n.s. = not significant; *p < 0.05; ***p = 0.0004; ****p < 0.0001; n.i. = not informative", "experimental": "Rotarod Testing. Motor behavior was tested up to two times per week for each mouse using a rotarod apparatus (Med Associates Inc., St. Albans, Vt.). Briefly, animals were placed on a rotating horizontal cylinder for a maximum of 200 seconds. The amount of time the mouse remained walking on the cylinder, without falling, was recorded. Each mouse was tested on a speed of 3-30 rpm and given three trials for any given day. The three trials were averaged to report a single value for an individual mouse, and then averages were calculated for all animals within a given treatment group. The first two trial days prior to immunization (day 0), served as practice trials."}, "[1]": {"tested_on": "spinal cords of C57BL/6 females with EAE", "experiment": "Spinal cord neuropathology (immunohistochemistry) in EAE", "assay_type": "in vivo, mouse", "settings": "vs vehicle treated EAE", "experimental": "Histological Preparation. Mice were exposed to a lethal dose of isoflurane and perfused transcardially with ice-cold 1×PBS for 8-15 min, followed by 10% formalin for 10-15 min. Spinal cords and brains were dissected and submerged in 10% formalin overnight at 4° C., followed by 30% sucrose in PBS for 24 h. Tissues were embedded in […] solution for cryostat sectioning then post-fixed overnight in 10% formalin and cryoprotected in 30% sucrose. The embedded tissues were stored in −80° C. after flash frozen in dry ice. 40 μm thick free-floating spinal cord cross-sections, and sagittal brain sections were obtained with a microtome b cryostat (model HM505E) at −20° C. Tissues were collected serially and stored in 1×PBS with 1% sodium azide in 4° C. until immunohistochemistry.\nImmunofluorescence. Prior to histological staining, […] free-floating sections were thoroughly washed with 1×PBS to remove residual sodium azide. In the case of anti-MBP labeling, tissue sections were processed with an additional 1 hour incubation with 5% glacial acetic acid in 100-proof ethanol at room temperature (RT). After washing tissue sections were permeabilized with 0.3% TritonX-100 and 2% normal goat serum in 1×PBS for 30 minutes at room temperature and blocked with 10% normal goat serum in 1×PBS for 1 hour. Tissues were then incubated with primary antibodies overnight in 4° C. The following primary antibody (Ab) were used: Rat anti-MBP (Millipore) at 1:1000 dilutions, Rabbit anti-NF200 (Sigma Aldrich) at 1:750 dilutions, Rabbit anti-beta-APP (Life Technologies) at 1:200 dilutions, Mouse anti-NeuN at 1:1000 dilutions (Millipore), Rabbit anti-PSD95, and Rabbit anti-Synapsin 1 at 1:500 dilutions (Millipore), and Rat anti-CD45 at 1:1500 dilutions (Millipore). The next day tissues were washed and incubated with secondary antibodies conjugated to Cy5 or Cy3 (Millipore) for 1 hour at room temperature. A nuclear stain DAPI (2 ng/mL; Molecular Probes) was added 10 minutes prior to final washes after secondary Ab incubation. Sections were mounted on slides, allowed to semi-dry, and cover slipped in fluoromount G (Fisher Scientific). IgG-control experiments were performed for all primary Ab, and only non-immunoreactive tissues under these conditions were analyzed.\nChromagen Immunohistochemistry. […] Tissues were then incubated with primary antibodies overnight in 4° C. The following primary antibodies were used: Rat anti-CD3 at 1:2000 dilutions (BD Pharmingen), anti-Calbindin D28K at 1:1000 dilutions (Millipore), and Rabbit anti-Iba1 at 1:10000 dilutions (Wako Chemicals), were added for 2 hour at room temperature, and then placed in 4° C. overnight. Tissue sections then followed with secondary Ab labeling at 1:1000 dilutions (Vector labs) for 1 hour at room temperature and then with Avidin-Biotin Conjugation solution (Vector Labs) for 1 hour at room temperature. Tissue sections were treated with DAB peroxidase substrate (Vector labs) according to manufacturer instructions. IgG-control experiments were performed for all primary Ab, and only non-immunoreactive tissues under these conditions were analyzed.\nMicroscopy and Quantification. Three spinal cord cross-sections at the C5-12 level from each mouse (n=3-6) were captured under microscope at 10× magnification. To quantify demyelination in the spinal cord and cerebellum, white matter was manually delineated on the basis of DAPI staining, and MBP staining intensity was calculated and reported in the sampled area. Axonal damage was assessed by counting beta-APP^+ cells in a confocal 10× microscope in spinal cord. Axonal densities were calculated by counting the number of NF200^+ or NeuN^+ neuronal cells in a 10× confocal image in the sampled area of the captured tissue section. Cerebellar Purkinje (Calbindin^+) cells were manually counted using a brightfield 10× microscope over the entire sagittal cerebellum. […]"}, "[2]": {"settings": "10 mg/kg every other day in miglyol, EAE day 60"}, "[3]": {"settings": "30 mg/kg every other day in miglyol"}},
  "note": "Entries after “also recorded” stand apart in the source; their conditions may differ.",
  "data": [
    {"smiles": "Oc1ccc(C2(c3ccccc3F)CCC(F)(F)CC2)cc1", "note": "[AC-186]", "values": [
      {"measurement": "Rotarod Score", "setting": "EAE in NOD mice; NOD F, AC186 10 mg/kg, miglylol vehicle", "result": "n.i."},
      {"measurement": "Rotarod Score", "setting": "EAE in NOD mice; NOD F, AC186 30 mg/kg, miglylol vehicle", "result": "n.i."},
      {"measurement": "Rotarod Score", "setting": "EAE in NOD mice; NOD F, AC186 30 mg/kg, sesame vehicle", "result": "n.i."},
      {"measurement": "Rotarod Score", "setting": "EAE in NOD mice; NOD M, AC186 10 mg/kg, miglylol vehicle", "result": "n.i."},
      {"measurement": "Rotarod Score", "setting": "EAE in NOD mice; NOD M, AC186 30 mg/kg, miglylol vehicle", "result": "n.i."},
      {"measurement": "Rotarod times", "setting": "EAE in NOD mice; NOD males, AC-186 in miglyol, vs vehicle", "result": "no significant improvement in performance in the rotarod experiment"},
      {"measurement": "Axonal densities / axon numbers (NF200), spinal cord", "setting": "[1]; [2]", "result": "Neuroprotective effects; also recorded: significantly more axon numbers"},
      {"measurement": "Myelin staining intensity (MBP), spinal cord", "setting": "[1]; [2]", "result": "a trend for somewhat higher MBP staining intensity"},
      {"measurement": "beta-APP expression (axonal damage), spinal cord", "setting": "[1]; [2]", "result": "Neuroprotective effects; also recorded: a trend of less beta-APP staining"},
      {"measurement": "CD3 stained cells (T lymphocytes), spinal cord", "setting": "[1]; 10 mg/kg in miglyol", "result": "neither AC-186 dose affected levels of CD3 staining; also recorded: no differences in the number of CD3 stained cells"},
      {"measurement": "CD45 immunoreactivity (all immune cells), spinal cord", "setting": "[1]; 10 mg/kg in miglyol", "result": "reduced CD45 staining; also recorded: a reduction of CD45 expression"},
      {"measurement": "Iba-1 globoid cells (macrophage like cells), spinal cord", "setting": "[1]; 10 mg/kg in miglyol", "result": "reduced Iba-1 globoid cell staining; also recorded: a significant reduction in the number of Iba-1 stained cells with globoid morphology"},
      {"measurement": "Axonal densities / axon numbers (NF200), spinal cord", "setting": "[1]; [3]", "result": "significantly preserved axon numbers; also recorded: sparing of axons and myelin; also recorded: significantly more axon numbers"},
      {"measurement": "Myelin staining intensity (MBP), spinal cord", "setting": "[1]; [3]", "result": "a trend for sparing myelin; also recorded: observed as significant; also recorded: a trend for somewhat higher MBP staining intensity"},
      {"measurement": "beta-APP expression (axonal damage), spinal cord", "setting": "[1]; [3]", "result": "reduced axonal damage; also recorded: significantly less expression of beta-APP"},
      {"measurement": "CD3 stained cells (T lymphocytes), spinal cord", "setting": "[1]; 30 mg/kg in miglyol", "result": "neither AC-186 dose affected levels of CD3 staining; also recorded: no differences in the number of CD3 stained cells"},
      {"measurement": "CD45 immunoreactivity (all immune cells), spinal cord", "setting": "[1]; 30 mg/kg in miglyol", "result": "reduced CD45 staining; also recorded: lowering CD45 and Iba-1; also recorded: a reduction of CD45 expression"},
      {"measurement": "Iba-1 globoid cells (macrophage like cells), spinal cord", "setting": "[1]; 30 mg/kg in miglyol", "result": "reduced Iba-1 globoid cell staining; also recorded: lowering CD45 and Iba-1; also recorded: a significant reduction in the number of Iba-1 stained cells with globoid morphology"}
    ]}
  ]
}
